The values that follow come from patent publication US20250179045A1, “LPAR1 ANTAGONISTS AND USES THEREOF” (Contineum Therapeutics, Inc., priority 2021, published 2025).

The structures appear in SMILES notation. pIC50: −log10 of the molar value. A value given as a limit tells only on which side of the number the result lay.

As a reminder, the pIC50 is the IC50 on a negative log10 scale, so that one unit is a factor of ten.

human LPA1, sequence (Q92633 whole entry): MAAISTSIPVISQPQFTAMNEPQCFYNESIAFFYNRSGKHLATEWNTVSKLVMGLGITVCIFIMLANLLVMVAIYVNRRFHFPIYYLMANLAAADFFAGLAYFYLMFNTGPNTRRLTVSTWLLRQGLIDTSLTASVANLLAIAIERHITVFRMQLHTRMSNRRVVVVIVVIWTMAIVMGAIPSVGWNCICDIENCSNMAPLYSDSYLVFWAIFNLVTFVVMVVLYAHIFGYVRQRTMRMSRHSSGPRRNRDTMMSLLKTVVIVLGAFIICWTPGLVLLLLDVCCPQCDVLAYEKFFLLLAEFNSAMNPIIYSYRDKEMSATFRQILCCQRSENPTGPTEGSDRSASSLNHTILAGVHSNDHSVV

The target in this assay is human LPA1 (Homo sapiens, UniProt Q92633). The assay can be described thus: In vitro functional assay of lysophosphatidic acid receptor 1 activity (calcium flux). It counts as cell-based. The following applies: B103 cells stably expressing human LPA1; Fluo-4 NW calcium flux after lysophosphatidic acid (18:1) at EC80; compounds 100 pM to 10 μM; read-out: LPA1 IC50. How it is done:
In vitro functional assay of lysophosphatidic acid receptor 1 activity
Primary compound plates were prepared in 100% DMSO (Sigma-Aldrich), secondary compound plates were prepared at 10× concentration in DiVEM (Invitrogen), and tertiary compound plates were prepared at 3x concentration in assay buffer containing HBSS (no Ca^+2/Mg^+2, Invitrogen) and 0.1% BSA (Sigma-Aldrich). Fluo-4 NW calcium assay dye (Invitrogen) was prepared as per manufacturer's recommendations in assay buffer. B103 cells stably expressing human LPA1(J. Chun lab, UCSD) were grown to confluency in DMEM media (Invitrogen) containing 10% FBS (ATCC), […] (Sigma-Aldrich) and […] Geneticin (Sigma-Aldrich), and detached with Accutase (Sigma-Aldrich) prior to assay. The freshly detached cells were resuspended in growth media and plated in black, clear-bottom 96-well plates (Costar) containing compound (i.e., secondary compound plate) at a density of 5×10^4 cells/well. Once plated, cells were left at room temperature for 30 minutes and then transferred to a 37° C., […] incubator for 24 hours. After 24 hours, the growth media was then removed and freshly prepared Fluo-4 NW calcium assay dye was added to cells. Compounds (i.e. tertiary compound plates) were then added back to the dye/cells, returned to the incubator for 30 minutes, and then kept at room temperature for an additional 30 minutes. Finally, lysophosphatidic acid (18:1) at the EC80 concentration was added and calcium flux measured using FlexStation 3 (Molecular Devices). Sigmoidal dose-response curves were generated by measuring […] over 45 sec and calculating the area under the curve. Dose response curves and IC50 values were generated using Prism (GraphPad). Compounds were tested at a final concentration range of 100 pM to 10 μM in 0.10% DMSO.
A general note: A change in cytosolic calcium serves as a functional read-out for many receptors and channels.
On to `Cc1ccc(NC(=O)C2(c3ccccc3C(C)C)CC(CC#N)C2)c(OC(F)F)n1` (mixture of isomers) [Example 63, 3-(cyanomethyl)-N-(2-(difluoromethoxy)-6-methylpyridin-3-yl)-1-(2-isopropylphenyl)cyclobutane-1-carboxamide], for which the pIC50 was 6.00 to 7.00. As for `Cc1ccc(NC(=O)C2(c3ccccc3C(C)C)CC(=O)N(C)C2)c(OC(F)F)n1` (stereo not drawn) [Example 3, N-(2-(difluoromethoxy)-6-methylpyridin-3-yl)-3-(2-isopropylphenyl)-1-methyl-5-oxopyrrolidine-3-carboxamide], the pIC50 was 7.00 to 8.00.

As to `Cc1cc(OC(F)F)c(NC(=O)C2(c3ccccc3C(C)C)CC(O)(C(F)(F)C(=O)O)C2)cn1` (single isomer, unassigned) [Example 94-isomer B, 2-(3-((4-(difluoromethoxy)-6-methylpyridin-3-yl)carbamoyl)-1-hydroxy-3-(2-isopropylphenyl)cyclobutyl)-2,2-difluoroacetic acid], the pIC50 was 7.00 to 8.00. Consider `Cc1ccc(NC(=O)C2(c3ccccc3C(C)C)CC(C(=O)O)C2)c(OC(F)F)n1` (stereo not drawn) [Example 65, 3-((2-(difluoromethoxy)-6-methylpyridin-3-yl)carbamoyl)-3-(2-isopropylphenyl)cyclobutane-1-carboxylic acid], for which the pIC50 was 7.00 to 8.00. Turning to `COc1ccc(NC(=O)C2(c3ccccc3C(C)C)CC(=O)N(C)C2)c(OC(F)F)n1` (single isomer, unassigned) [Example 1, N-(2-(difluoromethoxy)-6-methoxypyridin-3-yl)-3-(2-isopropylphenyl)-1-methyl-5-oxopyrrolidine-3-carboxamide], the pIC50 is 7.00 to 8.00.

As to `COc1ccc(NC(=O)C2(c3ccccc3C(C)C)CCC3(CC2)NC(=O)NC3=O)c(OC(F)F)n1` (mixture of isomers) [Example 86, N-(2-(difluoromethoxy)-6-methoxypyridin-3-yl)-8-(2-isopropylphenyl)-2,4-dioxo-1,3-diazaspiro[4.5]decane-8-carboxamide], the pIC50 was 6.00 to 7.00.

As for `COc1ccc(NC(=O)C2(c3ccccc3C(C)C)CC(CC#N)C2)c(OC(F)F)n1` (stereo not drawn) [Example 111, 3-(cyanomethyl)-N-(2-(difluoromethoxy)-6-methoxypyridin-3-yl)-1-(2-isopropylphenyl)cyclobutane-1-carboxamide], the negative-log IC50 (pIC50) is 7.00 to 8.00.

On to `COc1ccc(NC(=O)[C@]2(c3ccccc3C(C)C)C[C@@H](Cc3nnn[nH]3)C2)c(OC(F)F)n1` [Example 120, trans-3-((1H-tetrazol-5-yl)methyl)-N-(2-(difluoromethoxy)-6-methoxypyridin-3-yl)-1-(2-isopropylphenyl)cyclobutane-1-carboxamide], for which the pIC50 is above 8.00.

In the case of `CNS(=O)(=O)C1CC(C(=O)Nc2ccc(C)nc2OC(F)F)(c2ccccc2C(C)C)C1` (stereo not drawn) [Example 70, N-(2-(difluoromethoxy)-6-methylpyridin-3-yl)-1-(2-isopropylphenyl)-3-(N-methylsulfamoyl)cyclobutane-1-carboxamide], the pIC50 was 7.00 to 8.00. In the case of `Cc1ccc(NC(=O)C2(c3ccccc3C(C)C)CC(O)(C(F)(F)C(=O)O)C2)c(OC(F)F)n1` (mixture of isomers) [Example 53, 2-(3-((2-(difluoromethoxy)-6-methylpyridin-3-yl)carbamoyl)-1-hydroxy-3-(2-isopropylphenyl)cyclobutyl)-2,2-difluoroacetic acid], the pIC50 is above 8.00. Regarding `COc1cc(Cl)ncc1NC(=O)C1(c2ccccc2C(C)C)CC(O)(C(F)(F)C(=O)O)C1` (stereo not drawn) [Example 56, 2-(3-((6-chloro-4-methoxypyridin-3-yl)carbamoyl)-1-hydroxy-3-(2-isopropylphenyl)cyclobutyl)-2,2-difluoroacetic acid], the negative-log IC50 (pIC50) was 7.00 to 8.00. Take `Cc1cc(OC(F)F)c(NC(=O)C2(c3ccccc3C(C)C)COC2)cn1` [Example 26, N-(4-(difluoromethoxy)-6-methylpyridin-3-yl)-3-(2-isopropylphenyl)oxetane-3-carboxamide]: the pIC50 is 7.00 to 8.00.
